We go through 20 molecules from patent US9598387B2 (Southern Research Institute, priority 2012, dated 2017).

SMILES strings stand for the structures.

Test [1] addresses human D2-long dopamine receptor (Homo sapiens (Human), UniProt P14416). As to the kind of experiment: Radioligand binding (125I-IABN competition), D2. The conditions noted are these: HEK cell membranes expressing human D2-long. Here is the method:
(§1) The affinities of the target compounds were determined using radioligand binding experiments. […] Competition curves were modeled for a single site. Data from competition dose-response curves were analyzed using Tablecurve program (Jandel). IC50 values were converted to equilibrium dissociation constants (Ki values) using the Cheng and Prusoff correction.

Test [2] deals with human D3 dopamine receptor (Homo sapiens (Human), UniProt P35462). As to the kind of experiment: Radioligand binding (125I-IABN competition), D3. The conditions noted are these: for Ki: 125I-IABN competition, HEK cell membranes expressing human D3; for D2/D3 (D3 selectivity ratio, D2 Ki/D3 Ki): calculated D2 Ki/D3 Ki. The method, then: as §1
Sequence of human D3 dopamine receptor (P35462 whole entry): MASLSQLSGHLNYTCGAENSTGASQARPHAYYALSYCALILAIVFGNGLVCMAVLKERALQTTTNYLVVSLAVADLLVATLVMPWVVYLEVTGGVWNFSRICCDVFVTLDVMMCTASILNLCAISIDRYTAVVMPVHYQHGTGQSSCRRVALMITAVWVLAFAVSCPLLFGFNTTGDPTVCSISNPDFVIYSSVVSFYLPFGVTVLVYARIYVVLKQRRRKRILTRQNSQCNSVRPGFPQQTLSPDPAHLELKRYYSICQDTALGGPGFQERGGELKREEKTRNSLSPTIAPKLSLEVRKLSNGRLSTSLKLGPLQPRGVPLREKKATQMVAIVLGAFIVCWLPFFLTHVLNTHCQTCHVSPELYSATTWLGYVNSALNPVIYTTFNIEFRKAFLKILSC

Sequence of human D2-long dopamine receptor (P14416 whole entry): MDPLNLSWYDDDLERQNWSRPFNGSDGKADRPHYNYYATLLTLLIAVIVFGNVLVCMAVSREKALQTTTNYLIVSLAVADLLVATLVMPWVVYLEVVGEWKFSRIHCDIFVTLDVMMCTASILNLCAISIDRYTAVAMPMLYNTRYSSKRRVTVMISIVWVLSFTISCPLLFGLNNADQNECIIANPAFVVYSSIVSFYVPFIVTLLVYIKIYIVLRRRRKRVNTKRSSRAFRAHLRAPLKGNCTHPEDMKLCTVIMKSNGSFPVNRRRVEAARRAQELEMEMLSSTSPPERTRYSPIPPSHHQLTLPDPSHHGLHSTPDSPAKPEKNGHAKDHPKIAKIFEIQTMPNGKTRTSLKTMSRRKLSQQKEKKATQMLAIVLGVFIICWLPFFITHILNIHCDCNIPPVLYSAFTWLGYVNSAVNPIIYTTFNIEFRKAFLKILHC

Usually Ki stands for a measure of affinity in units of concentration, obtained from inhibition or displacement. Molecule `CC(C)(C)c1cc(N2CCN(CCCCNC(=O)c3cn4ccccc4n3)CC2)nc(C(C)(C)C)n1` [Compound 122, N-(4-(4-(2,6-Di-tert-butylpyrimidin-4-yl)piperazin-1-yl)butyl)imidazo[1,2-a]pyridine-2-carboxamide] had a Ki in test [1] of 361 nM. In addition, in test [2], the affinity corresponds to a Ki of 18.8 ± 3.5 nM and the “D2/D3 (D3 selectivity ratio, D2 Ki/D3 Ki)” value is recorded as 19.

Regarding `CC(C)(C)c1nc(N2CCN(CCCCNC(=O)N3CCN(c4ccc(Cl)cc4)CC3)CC2)cc(C(F)(F)F)n1` [Compound 57, N-(4-(4-(2-(tert-Butyl)-6-(trifluoromethyl)pyrimidin-4-yl)piperazin-1-yl)butyl)-4-(4-chlorophenyl)piperazine-1-carboxamide], in test [1], the inhibitory constant (Ki) was 644 ± 6.6 nM. In test [2], the inhibitory constant (Ki) was determined as 35.5 ± 7.2 nM and the “D2/D3 (D3 selectivity ratio, D2 Ki/D3 Ki)” value is recorded as 18.

As to `CC(C)(C)c1nc(N2CCN(CCCCNC(=O)N3CCN(c4cccc(C(F)(F)F)c4)CC3)CC2)cc(C(F)(F)F)n1` [Compound 27, N-(4-(4-(2-(tert-Butyl)-6-(trifluoromethyl)pyrimidin-4-yl)piperazin-1-yl)butyl)-4-(3-(trifluoromethyl)phenyl)piperazine-1-carboxamide], the inhibitory constant (Ki) came to 1050 ± 95.7 nM in test [1] and 29.6 ± 3.2 nM in test [2]. In addition, the “D2/D3 (D3 selectivity ratio, D2 Ki/D3 Ki)” value in test [2] is on record as 35.

On to `CC(C)(C)c1nc(N2CCN(CCCCNC(=O)N3CCN(CC4CC4)CC3)CC2)cc(C(F)(F)F)n1` [Compound 68, N-(4-(4-(2-(tert-Butyl)-6-(trifluoromethyl)pyrimidin-4-yl)piperazin-1-yl)butyl)-4-(cyclopropylmethyl)piperazine-1-carboxamide], for which the values for the inhibitory constant (Ki) in test [1] and in test [2] were 184 ± 46.6 nM and 13.8 ± 2.4 nM, respectively. In addition, in test [2], the “D2/D3 (D3 selectivity ratio, D2 Ki/D3 Ki)” value was 13.

`CC(C)(C)c1nc(N2CCN(CCCCNC(=O)N3CCN(c4ccncc4)CC3)CC2)cc(C(F)(F)F)n1` [Compound 31, N-(4-(4-(2-(tert-Butyl)-6-(trifluoromethyl)pyrimidin-4-yl)piperazin-1-yl)butyl)-4-(pyridin-4-yl)piperazine-1-carboxamide]: the Ki came to 97.4 ± 21.7 nM in test [1] and 2.6 ± 0.3 nM in test [2]. In addition, the “D2/D3 (D3 selectivity ratio, D2 Ki/D3 Ki)” value in test [2] is 38.

For `CC(C)(C)c1nc(N2CCN(CCCCNC(=O)N3CCc4ccccc43)CC2)cc(C(F)(F)F)n1` [Compound 71, N-(4-(4-(2-(tert-Butyl)-6-(trifluoromethyl)pyrimidin-4-yl)piperazin-1-yl)butyl)indoline-1-carboxamide], in test [1], the Ki was found to be 281 ± 46.5 nM. Also, in test [2], the inhibitory constant (Ki) amounted to 27.4 ± 3.8 nM and the “D2/D3 (D3 selectivity ratio, D2 Ki/D3 Ki)” value is listed as 10.

On to `CC(C)(C)c1cc(N2CCN(CCCCNC(=O)N3CCN(c4ccccc4)CC3)CC2)nc(C(C)(C)C)n1` [Compound 10, N-(4-(4-(2,6-Di-tert-butylpyrimidin-4-yl)piperazin-1-yl)butyl)-4-phenylpiperazine-1-carboxamide], for which the Ki in test [1] came to 337 ± 67.8 nM. In test [2], the Ki came out at 15.1 ± 4.2 nM and the “D2/D3 (D3 selectivity ratio, D2 Ki/D3 Ki)” value was 22.

`CC(C)(C)c1nc(N2CCN(CCCCNC(=O)N3CCN(c4ccc(-c5ccccc5)cc4)CC3)CC2)cc(C(F)(F)F)n1` [Compound 45, 4-([1,1′-Biphenyl]-4-yl)-N-(4-(4-(2-(tert-butyl)-6-(trifluoromethyl)pyrimidin-4-yl)piperazin-1-yl)butyl)piperazine-1-carboxamide] returned a Ki in test [1] of 621 ± 143 nM. In test [2], affinity was put at a Ki of 25.1 ± 5.5 nM and the “D2/D3 (D3 selectivity ratio, D2 Ki/D3 Ki)” value was 25.

Consider `Cc1ccc2[nH]c3c(c2c1)CN(C(=O)NCCCCN1CCN(c2cc(C(F)(F)F)nc(C(C)(C)C)n2)CC1)CC3` [Compound 90, N-(4-(4-(2-(tert-Butyl)-6-(trifluoromethyl)pyrimidin-4-yl)piperazin-1-yl)butyl)-8-methyl-3,4-dihydro-1H-pyrido[4,3-b]indole-2(5H)-carboxamide], for which, in test [1], the affinity, expressed as Ki, was 1340 ± 166 nM. In test [2], affinity was put at a Ki of 128 ± 30.3 nM and the “D2/D3 (D3 selectivity ratio, D2 Ki/D3 Ki)” value is listed as 10.

As to `CCN1CCN(C(=O)NCCCCN2CCN(c3cc(C(F)(F)F)nc(C(C)(C)C)n3)CC2)CC1` [Compound 65, N-(4-(4-(2-(tert-Butyl)-6-(trifluoromethyl)pyrimidin-4-yl)piperazin-1-yl)butyl)-4-ethylpiperazine-1-carboxamide], the inhibitory constant (Ki) in test [1] was determined as 128 ± 25.8 nM; in test [2] it was 8.6 ± 1.1 nM. Also, the “D2/D3 (D3 selectivity ratio, D2 Ki/D3 Ki)” value in test [2] was 15.

As for `O=C(NCCCCN1CCN(c2cc(C(F)(F)F)nc3ccccc23)CC1)N1CCN(c2ccccc2)CC1` [Compound 99, 4-Phenyl-N-(4-(4-(2-(trifluoromethyl)quinolin-4-yl)piperazin-1-yl)butyl)piperazine-1-carboxamide], the inhibition constant (Ki) came to 7250 ± 754 nM in test [1] and 299 ± 37.8 nM in test [2]. Moreover, in test [2], the “D2/D3 (D3 selectivity ratio, D2 Ki/D3 Ki)” value is on record as 24.

Take `CC(C)(C)c1nc(N2CCN(CCCCNC(=O)N3CCN(c4cc(C#N)cc(C(F)(F)F)c4)CC3)CC2)cc(C(F)(F)F)n1` [Compound 61, N-(4-(4-(2-(tert-Butyl)-6-(trifluoromethyl)pyrimidin-4-yl)piperazin-1-yl)butyl)-4-(3-cyano-5-(trifluoromethyl)phenyl)piperazine-1-carboxamide]: the inhibition constant (Ki) in test [1] stood at 896 ± 193 nM. Besides, in test [2], the affinity corresponds to a Ki of 48 ± 10.8 nM and the “D2/D3 (D3 selectivity ratio, D2 Ki/D3 Ki)” value is 19.

In test [1], `O=C(NCCCCN1CCN(c2ccnc3cc(Cl)ccc23)CC1)N1CCN(c2ccccc2)CC1` [Compound 12, N-(4-(4-(7-Chloroquinolin-4-yl)piperazin-1-yl)butyl)-4-phenylpiperazine-1-carboxamide] displayed an inhibition constant (Ki) of 933 ± 91 nM. Besides, in test [2], the Ki is 26.9 ± 4.9 nM and the “D2/D3 (D3 selectivity ratio, D2 Ki/D3 Ki)” value is on record as 35.

As for `O=C(NCCCCN1CCN(c2ccc3ccccc3n2)CC1)C1CCC(c2ccccc2)CC1` (centres unmarked) [Compound 106, 4-Phenyl-N-(4-(4-(quinolin-2-yl)piperazin-1-yl)butyl)cyclohexanecarboxamide], the inhibition constant Ki in test [1] was determined as 3090 ± 768 nM; in test [2], 62 ± 12.7 nM. In addition, the “D2/D3 (D3 selectivity ratio, D2 Ki/D3 Ki)” value in test [2] is given as 50.

On to `CC(C)(C)c1nc(N2CCN(CCCCNC(=O)N3CCC(Cc4ccccc4)CC3)CC2)cc(C(F)(F)F)n1` [Compound 50, 4-Benzyl-N-(4-(4-(2-(tert-butyl)-6-(trifluoromethyl)pyrimidin-4-yl)piperazin-1-yl)butyl)piperidine-1-carboxamide], for which the Ki in test [1] came out at 603 ± 104 nM; in test [2] it was 18.4 ± 2.6 nM. Also, the “D2/D3 (D3 selectivity ratio, D2 Ki/D3 Ki)” value in test [2] is 33.

As for `CC(C)(C)c1nc(N2CCN(CCCCNC(=O)c3cn4c(CO)cccc4n3)CC2)cc(C(F)(F)F)n1` [Compound 119, N-(4-(4-(2-(tert-Butyl)-6-(trifluoromethyl)pyrimidin-4-yl)piperazin-1-yl)butyl)-5-(hydroxymethyl)imidazo[1,2-a]pyridine-2-carboxamide], the inhibitory constant (Ki) was 934 ± 222 nM in test [1] and 45.4 ± 11.3 nM in test [2].

In test [1], `O=C(NCCCCN1CCN(c2ccnc3ccccc23)CC1)c1nc2ccccn2c1Br` [Compound 128, 3-Bromo-N-(4-(4-(quinolin-4-yl)piperazin-1-yl)butyl)imidazo[1,2-a]pyridine-2-carboxamide] yielded an inhibitory constant (Ki) of 2330 ± 785 nM. Besides, in test [2], the Ki came out at 285 ± 77 nM and the “D2/D3 (D3 selectivity ratio, D2 Ki/D3 Ki)” value is given as 8.

On to `COc1ccc2[nH]c3c(c2c1)CN(C(=O)NCCCCN1CCN(c2cc(C(C)(C)C)nc(C)n2)CC1)CC3` [Compound 96, N-(4-(4-(6-(tert-Butyl)-2-methylpyrimidin-4-yl)piperazin-1-yl)butyl)-8-methoxy-3,4-dihydro-1H-pyrido[4,3-b]indole-2(5H)-carboxamide], for which, in test [1], the Ki was > 5000 nM. Moreover, in test [2], the Ki was found to be 74.9 ± 15 nM and the “D2/D3 (D3 selectivity ratio, D2 Ki/D3 Ki)” value is >66.

As to `CC(C)(C)c1nc(N2CCN(CCCCNC(=O)N3CCC(N4CCCCC4)CC3)CC2)cc(C(F)(F)F)n1` [Compound 75, N-(4-(4-(2-(tert-Butyl)-6-(trifluoromethyl)pyrimidin-4-yl)piperazin-1-yl)butyl)-[1,4′-bipiperidine]-1′-carboxamide], the inhibition constant (Ki) in test [1] stood at 59.3 ± 7.5 nM. Moreover, in test [2], the Ki came out at 9.9 ± 1.7 nM and the “D2/D3 (D3 selectivity ratio, D2 Ki/D3 Ki)” value was 6.

With `CC(C)(C)c1nc(N2CCN(CCCCNC(=O)N3CCN(c4ccccc4Cl)CC3)CC2)cc(C(F)(F)F)n1` [Compound 14, N-(4-(4-(2-(tert-Butyl)-6-(trifluoromethyl)pyrimidin-4-yl)piperazin-1-yl)butyl)-4-(2-chlorophenyl)piperazine-1-carboxamide], in test [1], the affinity, expressed as Ki, was 738 ± 88.8 nM. In test [2], the inhibition constant (Ki) came to 21.4 ± 3.4 nM and the “D2/D3 (D3 selectivity ratio, D2 Ki/D3 Ki)” value is 34.
